Reference: patent publication US7410949B2, “Neuropeptide-2 receptor (Y-2R) agonists and uses thereof” (Hoffmann-La Roche Inc., priority 2005, dated 2008)
*1 amine or outer side, *2 acyl side, *3 side chain or, on linkers, in order; H or OH if unused. Where a SMILES comes first, the peptide text is derived from it. Bridges are numbered along the chain shown (N, C = ends). [ ]: non-standard residue; d: D form. X1 = O=C(COc1ccc2[nH]cc(CCN[*:1])c2c1)[*:2]; Nle = CCCC[C@H](N)C(=O)O

How the values were obtained:
[1] = tested on: C57BL/6J male mice or DIO (diet-induced obese) male mice; assay: In Vivo Reduction of Food Intake Assay; parameters: species or system mouse
Description: In this Example, compounds of Examples 5, 44, 73 and 74 were administered to four sets of mice in four separate experiments to measure effect on food intake. C57BL/6J male mice or DIO (diet-induced obese) male mice were used in the experiments, with eight mice per experimental group. The mice were maintained on a regular light cycle (6 AM—ON; 6 PM—OFF). The mice were fasted for 24 hours prior to testing with ad lib access to water. During the test, mice were housed one per cage.
The compounds of Examples 5 and 44 were administered intraperitoneally; and the compounds of Examples 73 and 74 were administered subcutaneously. In each Figure, cumulative and time interval food consumptions were measured in individual mice. Mean food consumption and percent change from vehicle were calculated for each time interval. Data was analyzed by using two-tailed Student t-test.

hypothalamic slices = hypothalamic slices in vitro; cited from earlier work
Y4R = Y4R (Homo sapiens, UniProt P50391); assay: FLIPR assay, Y4R; type: cell-based
Chain of Y4R (P50391 whole entry): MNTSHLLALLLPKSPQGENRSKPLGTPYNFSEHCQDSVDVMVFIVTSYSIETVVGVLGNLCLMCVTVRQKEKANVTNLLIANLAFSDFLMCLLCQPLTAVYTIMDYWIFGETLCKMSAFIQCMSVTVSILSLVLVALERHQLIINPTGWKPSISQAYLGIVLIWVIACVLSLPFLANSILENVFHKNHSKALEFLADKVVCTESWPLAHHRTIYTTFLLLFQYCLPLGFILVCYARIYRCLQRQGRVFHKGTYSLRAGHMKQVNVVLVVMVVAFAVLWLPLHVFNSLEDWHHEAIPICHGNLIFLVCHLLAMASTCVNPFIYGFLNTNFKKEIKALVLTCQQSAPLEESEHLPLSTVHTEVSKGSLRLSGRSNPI
Description: (§1) Loading Buffer (Calcium-3 Assay Kit, Molecular Devices) was prepared by dissolving the contents of one vial (Express Kit) into 1000 ml Hank's Balanced Salt Solution containing 20 mM HEPES and 5 mM probenecid. Aliquots of 25 μL of diluted dye was dispensed into the cell plates and the plates are then incubated for 1 hour at 37° C.
(§2) During the incubation, test compounds were prepared at 3.5× the desired concentration in HBSS (20 mM HEPES)/0.05% BSA/1% DMSO and transferred to a 384 well plate for use on FLIPR.
(§3) After incubation, both the cell and compound plates were brought to the FLIPR and 20 μL of the diluted compounds were transferred to the cell plates by the FLIPR. During the assay, fluorescence readings were taken simultaneously from all 384 wells of the cell plate every 1.5 seconds. Five readings were taken to establish a stable baseline, and then 20 μL of sample was rapidly (30 μL/sec) and simultaneously added to each well of the cell plate. The fluorescence was continuously monitored before, during and after sample addition for a total elapsed time of 100 seconds. Responses (increase in peak fluorescence) in each well following addition was determined. The initial fluorescence reading from each well, prior to ligand stimulation, was used as a zero baseline value for the data from that well. The responses are expressed as % of maximal response of the positive control.

Y1R = biological target: T1, Y1R (Homo sapiens, UniProt P25929); assay: FLIPR assay, Y1R; type: cell-based
T1 sequence (P25929 1-384): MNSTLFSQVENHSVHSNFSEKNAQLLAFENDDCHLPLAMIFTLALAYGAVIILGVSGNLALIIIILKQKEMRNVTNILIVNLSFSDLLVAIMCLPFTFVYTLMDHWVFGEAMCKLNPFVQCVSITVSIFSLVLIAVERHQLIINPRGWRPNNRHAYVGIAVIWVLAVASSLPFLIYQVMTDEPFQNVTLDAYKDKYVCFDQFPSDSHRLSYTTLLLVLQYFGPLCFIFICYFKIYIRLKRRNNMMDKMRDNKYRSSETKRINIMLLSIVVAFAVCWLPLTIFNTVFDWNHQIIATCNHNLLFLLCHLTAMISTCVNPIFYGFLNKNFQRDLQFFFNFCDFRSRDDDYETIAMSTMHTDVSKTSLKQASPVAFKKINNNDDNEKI
Description: as §1, §2, §3

[2] = administered subcutaneously, mice fasted 24 hours, 1, 2, 4, 6, 24 hours and longer intervals
[3] = administered intraperitoneally, mice fasted 24 hours, 1, 2, 4, 6 and 24 hours after dosing

Compound | reduction of food intake [1, 2] | reduction of food intake [1, 3] | other results
PEG (30,000)-Ile-Nle-Pqa-Arg-His-Tyr-Leu-Asn-Leu-Val-Thr-Arg-Gln-Arg-Tyr-NH2 [Example 74] | reduction of food intake was demonstrated |  | 
H-Ile-Lys-Pqa-Arg-His-Tyr-Leu-Asn-Leu-Val-Thr-Arg-Gln-Arg-Tyr-NH2 [Example 5] |  | reduction of food intake was demonstrated | 
N=C(N)NCCC[C@H](NC(=O)CC1(CC(=O)N2CCN(C3c4ccccc4NC(=O)c4ccccc43)CC2)CCCC1)C(=O)NCCn1c(=O)n(-c2ccccc2)n(-c2ccccc2)c1=O (stereo partly shown) [BIIE0246] |  |  | NPY release (hypothalamic slices): increases NPY release
Ac-Ile-Nle-Pqa-Arg-His-Tyr-Leu-Asn-Leu-Val-Thr-Arg-Gln-Arg-Tyr-NH2 [Example 44] |  | reduction of food intake was demonstrated | 
CCCC[C@H](NC(=O)[C@@H](NC(C)=O)[C@@H](C)CC)C(=O)NCCc1c[nH]c2ccc(OCC(=O)N[C@@H](CCCNC(=N)N)C(=O)N[C@@H](Cc3c[nH]cn3)C(=O)N[C@@H](Cc3ccc(O)cc3)C(=O)N[C@H]3CCCCNC(=O)C[C@@H](C(=O)N[C@@H](CCCNC(=N)N)C(=O)N[C@@H](CCC(N)=O)C(=O)N[C@@H](CCCNC(=N)N)C(=O)N[C@@H](Cc4ccc(O)cc4)C(N)=O)NC(=O)[C@H](C(C)C)NC(=O)[C@H](CC(C)C)NC(=O)[C@H](CC(N)=O)NC3=O)cc12 [Example 53] (Ac-I[Nle][X1]RHYKNLVDRQRY-NH2; lactam 7-11) |  |  | EC50 (Y4R): > 5 µM; EC50 (Y1R): > 5 µM
PEG (10,000)-Ile-Nle-Pqa-Arg-His-Tyr-Leu-Asn-Leu-Val-Thr-Arg-Gln-Arg-Tyr-NH2 [Example 73] | reduction of food intake was demonstrated |  | 
